Here are results for 3 compounds from ChEMBL document CHEMBL5715954, “Silencing c-Myc translation as a therapeutic strategy through targeting PI3Kδ and CK1ε in hematological malignancies” (Blood, 2017).

Parameters in all cases: scale not given: the % may be the effect or the level left
In test [1] the target is Non-receptor tyrosine-protein kinase TYK2 (Homo sapiens) (UniProt P29597). As to the kind of experiment: Inhibition of human TYK2 assessed as enzyme activity at 1 uM using KKSRGDYMTMQIG as substrate preincubated for 20 mins followed by [gamma-33P]-ATP addition and measured after 120 mins by radiometric Hot-SpotSM Kinase assay relative to control.
Sequence of Non-receptor tyrosine-protein kinase TYK2 (Homo sapiens) (P29597 whole entry): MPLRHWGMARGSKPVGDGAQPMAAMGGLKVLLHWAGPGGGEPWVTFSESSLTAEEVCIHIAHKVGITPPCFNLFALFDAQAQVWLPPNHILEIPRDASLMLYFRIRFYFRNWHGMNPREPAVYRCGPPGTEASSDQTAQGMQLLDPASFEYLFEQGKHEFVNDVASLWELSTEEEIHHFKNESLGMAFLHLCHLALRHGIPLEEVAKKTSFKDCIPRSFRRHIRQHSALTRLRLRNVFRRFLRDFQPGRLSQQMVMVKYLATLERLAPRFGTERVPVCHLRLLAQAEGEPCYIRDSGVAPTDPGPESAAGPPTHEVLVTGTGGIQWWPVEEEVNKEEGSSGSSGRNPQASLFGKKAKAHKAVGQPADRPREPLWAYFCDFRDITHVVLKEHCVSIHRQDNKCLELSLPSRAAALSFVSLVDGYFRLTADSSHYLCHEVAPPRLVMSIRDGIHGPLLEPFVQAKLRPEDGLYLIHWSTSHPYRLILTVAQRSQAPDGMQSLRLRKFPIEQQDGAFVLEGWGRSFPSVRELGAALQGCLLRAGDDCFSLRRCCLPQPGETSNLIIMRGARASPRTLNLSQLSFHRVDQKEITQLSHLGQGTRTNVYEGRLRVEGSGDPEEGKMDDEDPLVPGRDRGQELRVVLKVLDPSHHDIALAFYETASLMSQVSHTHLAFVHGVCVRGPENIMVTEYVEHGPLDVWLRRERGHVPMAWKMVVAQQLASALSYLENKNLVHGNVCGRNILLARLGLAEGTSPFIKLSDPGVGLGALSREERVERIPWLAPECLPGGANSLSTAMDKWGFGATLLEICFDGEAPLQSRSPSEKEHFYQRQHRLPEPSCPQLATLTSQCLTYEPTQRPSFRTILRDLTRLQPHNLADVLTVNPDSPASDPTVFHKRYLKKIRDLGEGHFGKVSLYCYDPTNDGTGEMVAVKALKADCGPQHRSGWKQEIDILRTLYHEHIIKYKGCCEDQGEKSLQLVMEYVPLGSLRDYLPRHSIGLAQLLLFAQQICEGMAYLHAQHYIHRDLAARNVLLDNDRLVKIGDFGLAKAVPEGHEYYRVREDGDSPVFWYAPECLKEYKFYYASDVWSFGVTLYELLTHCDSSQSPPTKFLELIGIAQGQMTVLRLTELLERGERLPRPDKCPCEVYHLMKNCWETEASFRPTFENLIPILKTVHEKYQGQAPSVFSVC
Test [2] addresses Receptor tyrosine-protein kinase erbB-4 (Homo sapiens) (UniProt Q15303). As to the kind of experiment: Inhibition of human ERBB4 assessed as enzyme activity at 1 uM using poly[Glu:Tyr] (4:1) as substrate preincubated for 20 mins followed by [gamma-33P]-ATP addition and measured after 120 mins by radiometric Hot-SpotSM Kinase assay relative to control.
In test [3] the target is T1, Calcium/calmodulin-dependent protein kinase type IV (Homo sapiens) (UniProt Q16566).
T1 sequence (whole entry): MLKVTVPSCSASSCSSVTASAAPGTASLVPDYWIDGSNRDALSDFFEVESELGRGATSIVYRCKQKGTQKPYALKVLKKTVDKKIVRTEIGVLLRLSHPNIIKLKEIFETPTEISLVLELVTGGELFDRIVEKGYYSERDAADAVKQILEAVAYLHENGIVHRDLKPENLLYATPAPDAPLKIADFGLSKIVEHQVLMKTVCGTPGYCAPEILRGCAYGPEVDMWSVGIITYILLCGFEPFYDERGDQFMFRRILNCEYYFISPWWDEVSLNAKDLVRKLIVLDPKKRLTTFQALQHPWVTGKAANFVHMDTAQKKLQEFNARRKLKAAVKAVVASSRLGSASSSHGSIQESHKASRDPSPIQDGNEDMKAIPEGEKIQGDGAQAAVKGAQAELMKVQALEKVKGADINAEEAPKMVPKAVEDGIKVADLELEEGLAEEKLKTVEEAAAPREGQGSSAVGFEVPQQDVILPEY
In words: Inhibition of human CAMK4 assessed as enzyme activity at 1 uM using KKLNRTLSFAEPG as substrate preincubated for 20 mins followed by [gamma-33P]-ATP addition and measured after 120 mins by radiometric Hot-SpotSM Kinase assay relative to control.

The target in test [4] is Mitogen-activated protein kinase kinase kinase 1 (Homo sapiens) (UniProt Q13233). In words: Inhibition of human MEKK1 assessed as enzyme activity at 1 uM using myelin basic protein as substrate preincubated for 20 mins followed by [gamma-33P]-ATP addition and measured after 120 mins by radiometric Hot-SpotSM Kinase assay relative to control.
Sequence of Mitogen-activated protein kinase kinase kinase 1 (Homo sapiens) (Q13233 whole entry): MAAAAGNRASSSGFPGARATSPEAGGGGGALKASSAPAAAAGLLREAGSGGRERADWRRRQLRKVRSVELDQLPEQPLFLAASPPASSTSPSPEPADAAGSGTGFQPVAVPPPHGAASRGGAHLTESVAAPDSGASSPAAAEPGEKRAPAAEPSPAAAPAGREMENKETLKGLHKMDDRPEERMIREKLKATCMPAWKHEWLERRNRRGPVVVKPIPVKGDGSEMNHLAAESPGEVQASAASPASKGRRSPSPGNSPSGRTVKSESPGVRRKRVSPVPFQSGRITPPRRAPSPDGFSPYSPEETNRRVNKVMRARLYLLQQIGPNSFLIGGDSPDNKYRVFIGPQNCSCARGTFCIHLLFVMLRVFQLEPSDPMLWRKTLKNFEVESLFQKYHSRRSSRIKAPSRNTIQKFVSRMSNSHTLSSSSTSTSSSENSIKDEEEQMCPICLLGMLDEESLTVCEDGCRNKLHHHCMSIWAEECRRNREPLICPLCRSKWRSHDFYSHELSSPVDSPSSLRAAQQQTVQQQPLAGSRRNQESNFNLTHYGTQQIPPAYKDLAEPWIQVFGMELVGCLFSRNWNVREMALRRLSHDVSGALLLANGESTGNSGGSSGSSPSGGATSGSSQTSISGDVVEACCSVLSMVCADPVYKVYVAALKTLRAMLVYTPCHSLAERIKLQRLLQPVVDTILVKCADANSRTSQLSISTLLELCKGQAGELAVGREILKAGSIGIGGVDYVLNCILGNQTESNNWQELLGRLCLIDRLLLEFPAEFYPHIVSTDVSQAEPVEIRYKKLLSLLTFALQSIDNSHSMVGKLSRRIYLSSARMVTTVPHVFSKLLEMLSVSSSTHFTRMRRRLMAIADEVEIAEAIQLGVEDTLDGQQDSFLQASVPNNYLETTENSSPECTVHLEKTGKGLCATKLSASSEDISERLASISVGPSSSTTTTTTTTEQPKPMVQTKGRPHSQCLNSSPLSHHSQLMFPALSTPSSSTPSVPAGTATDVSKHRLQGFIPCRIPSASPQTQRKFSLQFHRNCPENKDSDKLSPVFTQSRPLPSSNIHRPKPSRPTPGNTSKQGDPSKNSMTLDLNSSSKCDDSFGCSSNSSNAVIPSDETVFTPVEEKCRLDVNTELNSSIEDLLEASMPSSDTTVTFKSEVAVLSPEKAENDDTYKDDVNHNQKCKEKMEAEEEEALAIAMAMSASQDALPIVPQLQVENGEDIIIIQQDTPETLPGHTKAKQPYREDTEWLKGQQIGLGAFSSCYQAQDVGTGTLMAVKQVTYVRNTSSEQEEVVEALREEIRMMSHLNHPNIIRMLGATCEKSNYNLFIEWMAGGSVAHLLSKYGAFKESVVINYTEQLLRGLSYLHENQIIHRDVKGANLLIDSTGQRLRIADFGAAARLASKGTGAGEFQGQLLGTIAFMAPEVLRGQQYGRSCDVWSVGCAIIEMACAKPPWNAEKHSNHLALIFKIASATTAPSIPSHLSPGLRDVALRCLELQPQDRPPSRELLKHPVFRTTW
The target of test [5] is T2, cGMP-dependent protein kinase 1 (Homo sapiens) (UniProt Q13976).
T2 sequence (whole entry): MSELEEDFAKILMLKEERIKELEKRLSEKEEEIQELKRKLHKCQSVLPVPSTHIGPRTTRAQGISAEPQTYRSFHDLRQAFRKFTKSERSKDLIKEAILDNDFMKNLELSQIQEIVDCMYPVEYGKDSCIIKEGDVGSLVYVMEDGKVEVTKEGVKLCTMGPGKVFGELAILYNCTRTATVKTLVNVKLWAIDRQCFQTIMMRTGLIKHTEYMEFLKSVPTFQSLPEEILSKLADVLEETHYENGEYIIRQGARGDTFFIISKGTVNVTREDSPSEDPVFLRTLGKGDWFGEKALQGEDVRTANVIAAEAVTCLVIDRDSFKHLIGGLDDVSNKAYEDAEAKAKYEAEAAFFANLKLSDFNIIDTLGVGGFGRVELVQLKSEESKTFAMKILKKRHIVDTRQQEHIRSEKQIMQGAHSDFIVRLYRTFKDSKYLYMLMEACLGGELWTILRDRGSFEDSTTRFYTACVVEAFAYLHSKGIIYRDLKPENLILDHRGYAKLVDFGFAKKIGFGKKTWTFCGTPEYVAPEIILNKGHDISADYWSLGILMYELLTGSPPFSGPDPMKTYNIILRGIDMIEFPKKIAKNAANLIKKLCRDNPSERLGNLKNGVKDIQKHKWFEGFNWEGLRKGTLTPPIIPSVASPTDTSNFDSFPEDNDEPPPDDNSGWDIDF
In words: Inhibition of human PKG1a assessed as enzyme activity at 1 uM using LRRASLG as substrate preincubated for 20 mins followed by [gamma-33P]-ATP addition and measured after 120 mins by radiometric Hot-SpotSM Kinase assay relative to control.

Test [6] deals with T3, Tyrosine-protein kinase Tec (Homo sapiens) (UniProt P42680).
T3 sequence (whole entry): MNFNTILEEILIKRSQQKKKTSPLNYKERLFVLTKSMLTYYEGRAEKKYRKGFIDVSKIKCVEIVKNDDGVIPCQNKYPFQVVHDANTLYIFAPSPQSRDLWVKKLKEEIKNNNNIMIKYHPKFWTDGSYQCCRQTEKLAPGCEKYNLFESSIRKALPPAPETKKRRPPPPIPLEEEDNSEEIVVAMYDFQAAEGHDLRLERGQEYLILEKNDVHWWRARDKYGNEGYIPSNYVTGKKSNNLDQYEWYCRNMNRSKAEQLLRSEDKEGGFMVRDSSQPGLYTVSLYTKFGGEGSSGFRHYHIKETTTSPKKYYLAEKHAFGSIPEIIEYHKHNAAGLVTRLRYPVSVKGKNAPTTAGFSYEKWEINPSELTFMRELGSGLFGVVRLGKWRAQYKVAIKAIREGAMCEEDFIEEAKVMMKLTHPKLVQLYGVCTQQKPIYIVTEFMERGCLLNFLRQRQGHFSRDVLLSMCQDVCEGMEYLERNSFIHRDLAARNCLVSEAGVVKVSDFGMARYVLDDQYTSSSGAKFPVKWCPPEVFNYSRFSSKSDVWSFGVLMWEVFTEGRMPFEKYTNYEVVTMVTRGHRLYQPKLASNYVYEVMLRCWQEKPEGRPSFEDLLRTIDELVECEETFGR
In words: Inhibition of human TEC assessed as enzyme activity at 1 uM using poly[Glu:Tyr] (4:1) as substrate preincubated for 20 mins followed by [gamma-33P]-ATP addition and measured after 120 mins by radiometric Hot-SpotSM Kinase assay relative to control.

The structures appear in SMILES notation.

Sequence of Receptor tyrosine-protein kinase erbB-4 (Homo sapiens) (Q15303 whole entry): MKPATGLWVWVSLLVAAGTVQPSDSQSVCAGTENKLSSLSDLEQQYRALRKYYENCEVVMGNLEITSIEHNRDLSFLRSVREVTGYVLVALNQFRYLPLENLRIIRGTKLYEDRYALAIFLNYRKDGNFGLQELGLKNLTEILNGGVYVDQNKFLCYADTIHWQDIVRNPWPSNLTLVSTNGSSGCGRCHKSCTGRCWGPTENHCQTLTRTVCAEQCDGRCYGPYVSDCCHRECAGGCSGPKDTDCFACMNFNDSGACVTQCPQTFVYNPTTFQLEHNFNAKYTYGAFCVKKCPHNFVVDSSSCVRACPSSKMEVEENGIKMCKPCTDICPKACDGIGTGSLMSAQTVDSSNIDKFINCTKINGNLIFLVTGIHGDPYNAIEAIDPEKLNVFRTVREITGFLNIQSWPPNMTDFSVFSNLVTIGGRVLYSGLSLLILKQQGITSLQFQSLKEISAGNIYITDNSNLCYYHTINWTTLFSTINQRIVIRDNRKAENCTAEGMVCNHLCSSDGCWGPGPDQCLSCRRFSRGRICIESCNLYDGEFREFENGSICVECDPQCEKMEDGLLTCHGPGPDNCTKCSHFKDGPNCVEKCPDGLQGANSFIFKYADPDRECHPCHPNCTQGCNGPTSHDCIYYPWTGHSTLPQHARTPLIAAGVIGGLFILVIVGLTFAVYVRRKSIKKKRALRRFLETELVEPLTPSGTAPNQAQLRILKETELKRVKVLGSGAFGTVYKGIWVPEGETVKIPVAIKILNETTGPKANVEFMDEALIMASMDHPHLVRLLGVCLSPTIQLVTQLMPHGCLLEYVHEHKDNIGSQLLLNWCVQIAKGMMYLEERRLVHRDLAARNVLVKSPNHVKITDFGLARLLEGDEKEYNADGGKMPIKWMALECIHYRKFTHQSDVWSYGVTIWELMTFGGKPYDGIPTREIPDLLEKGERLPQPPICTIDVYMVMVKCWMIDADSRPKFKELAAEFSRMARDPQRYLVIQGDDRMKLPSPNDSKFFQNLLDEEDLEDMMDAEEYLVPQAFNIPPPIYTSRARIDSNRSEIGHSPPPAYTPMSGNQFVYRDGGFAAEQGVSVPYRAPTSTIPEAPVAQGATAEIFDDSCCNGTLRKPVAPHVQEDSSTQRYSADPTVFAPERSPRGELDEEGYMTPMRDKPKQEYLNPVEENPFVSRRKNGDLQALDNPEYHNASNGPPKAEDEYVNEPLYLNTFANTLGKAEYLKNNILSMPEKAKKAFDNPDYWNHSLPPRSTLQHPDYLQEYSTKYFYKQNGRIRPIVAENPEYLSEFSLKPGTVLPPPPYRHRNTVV

On to `C[C@H](Nc1ncnc2nc[nH]c12)c1cc2cccc(Cl)c2c(=O)n1-c1ccccc1`, for which the Activity in test [1] is 96.3%; in test [2], 97.4%; in test [3] it was 80.7%; in test [4] it was 107%; in test [5] it was 109%; in test [6] it was 95.8%.

For `CC[C@H](Nc1ncnc2[nH]cnc12)c1nc2cccc(F)c2c(=O)n1-c1ccccc1`, the Activity in test [1] worked out at 96.6%; in test [2], 101%; in test [3], 82.5%; in test [4] it was 101%; in test [5], 105%; in test [6], 99.3%.

Take `CC(C)Oc1ccc(-c2nn([C@@H](C)c3oc4ccc(F)cc4c(=O)c3-c3cccc(F)c3)c3ncnc(N)c23)cc1F` [UMBRALISIB]: the Activity came to 102% in test [1]; 101% in test [2]; 75.4% in test [3]; 101% in test [4]; 105% in test [5]; 98.1% in test [6].
